Test results reported in publication PMC7170309, “Imidazopyridine-fused [1,3]diazepinones: modulations of positions 2 to 4 and their impacts on the anti-melanoma activity” (Journal of Enzyme Inhibition and Medicinal Chemistry, 2020).
Blank lines part the entries; values can stand above or below the molecule they belong to.

Assays:
[1] = system: A375 melanoma cells; assay: Neutral red uptake (NRU) viability assay, A375; format: cell-based, human; conditions: Homo sapiens, A-375, 72 h, mean ± SD of three experiments
Experimental: (§1) Melanoma human cancer cell line (A375 and MDA-MB-435) were obtained from ATCC. The NIH-3T3 cell line was generously gifted by the ANSM (French National Agency for Medicines and Health Products Safety, Vendargues, France). Cells were cultured in Dulbecco’s Modified Eagle Medium (DMEM, Sigma Aldrich) supplemented with 10% heat-inactivated foetal calf serum (FCS, Gibco), 2 mM glutamax (Gibco), 100 IU/mL penicillin G sodium (Sigma Aldrich), 100 lU/mL streptomycin sulphate (Sigma Aldrich). The cells were allowed to grow at 37 °C in a fully humidified atmosphere containing 5% CO2.
(§2) A viability assay was used to evaluate the cytotoxic activity on A375 and MDA-MB-435 melanoma cells as previously described. According to OCDE/ICCVAM guidance n°129, NRU assay was also used to evaluate the toxicity on the non-cancerous NIH-3T3 cells. Cells were seeded at a final concentration of 2000 cells/well (A375), 3000 cells/well (NIH-3T3) or 7500 cells/well (MDA-MB-435) in 96-well microtiter plates for 24 h. Then, cells were exposed to two negative controls (1% DMSO in culture medium (vehicle) and culture medium alone), or to different compounds freshly dissolved in DMSO, in a range of concentration from 0.01 to 40 µM (six wells per concentration). After 72 h of incubation, cells were stained with new medium containing 50 µg/mL of neutral red (3-amino-7-dimethylamino-2-methylphenazine hydrochloride, Sigma Aldrich) at 37 °C for 2 h. The neutral red medium solution was then removed and the wells were washed with PBS. Finally, 100 µL of solution containing ethanol, acetic acid and water (50/1/49 v/v/v respectively) were added into the wells and the absorbance was measured at 540 nm using the microplate reader 352 Multiscan MS (Labsystems). Cell survival rates were normalised to the absorbance values of untreated control cells. IC50 was obtained using a logistic regression model on Graphpad Prism 5.0 software. Results are given as the mean ± standard deviation (SD) of three independent experiments. Statistical analysis was performed using the Student’s t-test.

[2] = system: NIH-3T3 non-cancerous cells; assay: Neutral red uptake (NRU) toxicity assay, NIH-3T3; format: cell-based; conditions: Mus musculus, NIH3T3, 72 h, non-cancerous mouse fibroblasts
Experimental: as §1, §2
Then, all active compounds on the two melanoma cell lines (IC50 < 40 µM) were assessed on the NIH-3T3 mouse fibroblast cell line, in order to check the toxicity of our compounds on non-cancerous cells. […] As a possible modification of the mechanism of action was hypothesised for these two derivatives (see above), this phenomenon could probably be also correlated with the cytotoxicity observed on the NIH-3T3 cell line.

[3] = system: EKVX; assay: NCI-60 SRB assay, EKVX (NSCLC); format: cell-based, human; conditions: 10 µM, 48 h; for G%: growth vs untreated control
Experimental: (§3) Primary anticancer assay was performed on a panel of 60 human cancer cell lines derived from nine neoplastic diseases, in accordance with the protocol of the Drug Evaluation Branch, National Cancer Institute, Bethesda, Maryland, USA[22]. Cells were incubated with tested compounds at 10 µM for 48 h. The growth percentage was evaluated spectrophotometrically using a protein binding dye, SRB. Results for each tested compound were reported as the percent of growth of treated cells when compared to untreated control cells.
(§4) To better compare the activity profile of these two series of compounds, compounds 5 and 8 were selected and then evaluated towards a panel of sixty cancer cell lines corresponding to nine different cancer types, i.e. leukaemia, melanoma, as well as lung, colon, central nervous system, ovarian, renal, prostate and breast cancers (NCI evaluation). Indeed, it is now well established that the growth inhibitory patterns of anticancer drugs against the NCI-60 cell line panel correlated well with their modes of action. For example, compounds that bind to tubulin have similar growth inhibition patterns regardless of which site on tubulin they bind[30]. […] Compounds were tested using the sulforhodamine B (SRB) assay that provides a direct cell density index. The amount of dye incorporated by the cells increases with the increase of the total protein biomass. Cells were incubated for 48 h with compounds at 10 µM concentration, then cell growth was evaluated spectrophotometrically and presented as the percent of untreated control cells. Values of the most sensitive cell lines were compared to those obtained with JMV5038 (Figure 4, for all data see SI).

[4] = system: HOP-62; assay: NCI-60 SRB assay, HOP-62 (NSCLC); format: cell-based, human; conditions: 10 µM, 48 h; for G%: growth vs untreated control;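 for Mean G% - G%: mean growth across the NCI-60 panel minus this line's growth with positive meaning more sensitive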
Experimental: as §3, §4

[5] = system: HOP-92; assay: NCI-60 SRB assay, HOP-92 (NSCLC); format: cell-based, human; conditions: 10 µM, 48 h; for G%: growth vs untreated control;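 for Mean G% - G%: mean growth across the NCI-60 panel minus this line's growth with positive meaning more sensitive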
Experimental: as §3, §4

[6] = system: NCI-H226; assay: NCI-60 SRB assay, NCI-H226 (NSCLC); format: cell-based, human; conditions: 10 µM, 48 h; for G%: growth vs untreated control
Experimental: as §3, §4

[7] = system: NCI-H322M; assay: NCI-60 SRB assay, NCI-H322M (NSCLC); format: cell-based, human; conditions: 10 µM, 48 h; for G%: growth vs untreated control
Experimental: as §3, §4

[8] = system: NCI-H522; assay: NCI-60 SRB assay, NCI-H522 (NSCLC); format: cell-based, human; conditions: 10 µM, 48 h; for G%: growth vs untreated control
Experimental: as §3, §4

[9] = system: HCC-2998; assay: NCI-60 SRB assay, HCC-2998 (Colon Cancer); format: cell-based, human; conditions: 10 µM, 48 h; for G%: growth vs untreated control;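 for Mean G% - G%: mean growth across the NCI-60 panel minus this line's growth with positive meaning more sensitive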
Experimental: as §3, §4

[10] = system: HCT-116; assay: NCI-60 SRB assay, HCT-116 (Colon Cancer); format: cell-based, human; conditions: 10 µM, 48 h; for G%: growth vs untreated control
Experimental: as §3, §4

[11] = system: HT29; assay: NCI-60 SRB assay, HT29 (Colon Cancer); format: cell-based, human; conditions: 10 µM, 48 h; for G%: growth vs untreated control;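 for Mean G% - G%: mean growth across the NCI-60 panel minus this line's growth with positive meaning more sensitive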
Experimental: as §3, §4

[12] = system: SF-295; assay: NCI-60 SRB assay, SF-295 (CNS Cancer); format: cell-based, human; conditions: 10 µM, 48 h; for G%: growth vs untreated control
Experimental: as §3, §4

[13] = system: SNB-19; assay: NCI-60 SRB assay, SNB-19 (CNS Cancer); format: cell-based, human; conditions: 10 µM, 48 h; for G%: growth vs untreated control
Experimental: as §3, §4

[14] = system: SNB-75; assay: NCI-60 SRB assay, SNB-75 (CNS Cancer); format: cell-based, human; conditions: 10 µM, 48 h; for G%: growth vs untreated control
Experimental: as §3, §4

[15] = system: IGROV1; assay: NCI-60 SRB assay, IGROV1 (Ovarian Cancer); format: cell-based, human; conditions: 10 µM, 48 h; for G%: growth vs untreated control
Experimental: as §3, §4

[16] = system: OVCAR-5; assay: NCI-60 SRB assay, OVCAR-5 (Ovarian Cancer); format: cell-based, human; conditions: 10 µM, 48 h; for G%: growth vs untreated control
Experimental: as §3, §4

[17] = system: ACHN; assay: NCI-60 SRB assay, ACHN (Renal Cancer); format: cell-based, human; conditions: 10 µM, 48 h; for G%: growth vs untreated control
Experimental: as §3, §4

[18] = system: RXF 393; assay: NCI-60 SRB assay, RXF 393 (Renal Cancer); format: cell-based, human; conditions: 10 µM, 48 h
Experimental: as §3, §4

[19] = system: SN12C; assay: NCI-60 SRB assay, SN12C (Renal Cancer); format: cell-based, human; conditions: 10 µM, 48 h; for G%: growth vs untreated control
Experimental: as §3, §4

[20] = system: TK-10; assay: NCI-60 SRB assay, TK-10 (Renal Cancer); format: cell-based, human; conditions: 10 µM, 48 h; for G%: growth vs untreated control
Experimental: as §3, §4

[21] = system: MCF7; assay: NCI-60 SRB assay, MCF7 (Breast Cancer); format: cell-based, human; conditions: 10 µM, 48 h; for G%: growth vs untreated control
Experimental: as §3, §4

[22] = system: MOLT-4; assay: NCI-60 SRB assay, MOLT-4 (Leukemia); format: cell-based, human; conditions: 10 µM, 48 h
Experimental: as §3, §4

IC50 [1]: 7.13 ± 0.51 µM
Compound: C[C@@H]1NC(c2ccc(N=[N+]=[N-])cc2)=Nc2nc3ccccn3c2C1=O [Compound 5, (4S)-4-methyl-2-(4-azidophenyl)-3,4-dihydro-5H-pyrido[1’,2’:1,2]imidazo[4,5-d][1,3]diazepin-5-one]
IC50 [2]: > 40 µM
Mean G% - G% [3]: 3,45%
G% [3]: 81,81%
Mean G% - G% [4]: 6,31%
G% [4]: 78,95%
Mean G% - G% [5]: -17,00%
G% [5]: 102,26%
Mean G% - G% [6]: -3,88%
G% [6]: 89,14%
Mean G% - G% [7]: -10,63%
G% [7]: 95,89%
Mean G% - G% [8]: 13,32%
G% [8]: 71,94%
Mean G% - G% [9]: 3,82%
G% [9]: 81,44%
Mean G% - G% [10]: -2,45%
G% [10]: 87,71%
Mean G% - G% [11]: 10,46%
G% [11]: 74,80%
Mean G% - G% [12]: -8,18%
G% [12]: 93,44%
Mean G% - G% [13]: -4,44%
G% [13]: 89,70%
Mean G% - G% [14]: 14,91%
G% [14]: 70,35%
Mean G% - G% [15]: 10,76%
G% [15]: 74,50%
Mean G% - G% [16]: -22,84%
G% [16]: 108,10%
Mean G% - G% [17]: 0,49%
G% [17]: 84,77%
Mean G% - G% [18]: -1,17%
G% ([18]; growth vs untreated control): 86,43%
Mean G% - G% [19]: -18,28%
G% [19]: 103,54%
Mean G% - G% [20]: -48,01%
G% [20]: 133,27%
Mean G% - G% [21]: 26,64%
G% [21]: 58,62%

Compound: C[C@@H]1NC(c2csc3ccccc23)=Nc2nc3ccccn3c2C1=O [Compound 8, (4S)-4-methyl-2-benzothiophen-3-yl-3,4-dihydro-5H-pyrido[1’,2’:1,2]imidazo[4,5-d][1,3]diazepin-5-one]
IC50 [1]: 7.97 ± 0.65 µM
IC50 [2]: > 40 µM
Mean G% - G% [22]: -8,59%
G% ([22]; growth vs untreated control): 83,46%
Mean G% - G% [3]: 0,63%
G% [3]: 74,24%
Mean G% - G% [4]: 23,74%
G% [4]: 51,13%
Mean G% - G% [5]: 34,61%
G% [5]: 40,26%
Mean G% - G% [6]: 2,63%
G% [6]: 72,24%
Mean G% - G% [7]: 10,06%
G% [7]: 64,81%
Mean G% - G% [8]: -20,45%
G% [8]: 95,32%
Mean G% - G% [9]: -23,19%
G% [9]: 98,06%
Mean G% - G% [10]: 2,74%
G% [10]: 72,13%
Mean G% - G% [11]: -10,58%
G% [11]: 85,45%
Mean G% - G% [12]: -8,66%
G% [12]: 83,53%
Mean G% - G% [13]: -4,95%
G% [13]: 79,82%
Mean G% - G% [14]: 60,36%
G% [14]: 14,51%
Mean G% - G% [15]: 14,89%
G% [15]: 59,98%
Mean G% - G% [16]: -32,82%
G% [16]: 107,69%
Mean G% - G% [17]: -4,72%
G% [17]: 79,59%
Mean G% - G% [19]: -9,24%
G% [19]: 84,11%
Mean G% - G% [20]: -36,86%
G% [20]: 111,73%
Mean G% - G% [21]: 24,29%
G% [21]: 50,58%
